Measurements published in patent US7858640B2, “Quinolines and their therapeutic use” (Pulmagen Therapeutics (Asthma) Limited, priority 2005, dated 2010).

Biological target: T1, CRTH2 receptor (Homo sapiens, UniProt Q9Y5Y4)
T1 sequence (Q9Y5Y4 1-395): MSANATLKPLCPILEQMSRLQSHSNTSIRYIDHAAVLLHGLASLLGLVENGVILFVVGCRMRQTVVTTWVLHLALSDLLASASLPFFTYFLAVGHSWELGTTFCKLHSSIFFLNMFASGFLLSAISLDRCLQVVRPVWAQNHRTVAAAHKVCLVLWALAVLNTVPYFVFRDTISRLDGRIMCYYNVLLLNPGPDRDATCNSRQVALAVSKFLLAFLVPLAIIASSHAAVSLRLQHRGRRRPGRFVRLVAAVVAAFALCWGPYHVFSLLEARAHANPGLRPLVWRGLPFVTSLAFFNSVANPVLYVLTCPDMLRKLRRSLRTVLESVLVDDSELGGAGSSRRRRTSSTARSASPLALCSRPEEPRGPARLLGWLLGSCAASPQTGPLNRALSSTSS
Test: Radioligand binding assay ([3H]-PGD2 displacement, SPA)
Parameters: expressed in transfected cells; host or cells: HEK cell membranes
Settings: HEK cell membranes expressing the CRTH2 receptor, 1 nM [3H]-PGD2; Ki from IC50 by Cheng-Prusoff
Procedure: Radioligand Binding Assay
The receptor binding assay is performed in a final volume of 200 μL binding buffer [10 mM BES (pH 7.4), 1 mM EDTA, 10 mM manganese chloride, 0.01% BSA] and 1 nM [^3H]-PGD2 (Amersham Biosciences UK Ltd). Ligands are added in assay buffer containing a constant amount of DMSO (1% by volume). Total binding is determined using 1% by volume of DMSO in assay buffer and non-specific binding is determined using 10 μM of unlabeled PGD2 (Sigma). Human embryonic kidney (HEK) cell membranes (3.5 μg) expressing the CRTH2 receptor are incubated with 1.5 mg wheatgerm agglutinin SPA beads and 1 nM [^3H]-PGD2 (Amersham Biosciences UK Ltd) and the mixture incubated for 3 hours at room temperature. Bound [^3H]-PGD2 is detected using a Microbeta TRILUX liquid scintillation counter (Perkin Elmer). Compound IC50 value is determined using a 6-point dose response curve in duplicate with a semi-log compound dilution series. IC50 calculations are performed using Excel and XLfit (Microsoft), and this value is used to determine a Ki value for the test compound using the Cheng-Prusoff equation.

Ki	SMILES
< 100 nM	CCc1nc2c(Cl)ccc(OCC(=O)O)c2c(OC(F)F)c1Cc1ccc(Cl)cc1F [Example 62, [8-chloro-3-(4-chloro-2-fluorobenzyl)-4-difluoromethoxy-2-ethylquinolin-5-yloxy]acetic Acid]
< 100 nM	CCc1nc2c(F)ccc(O[C@@H](C)C(=O)O)c2c(OC(F)F)c1Cc1ccc(C(=O)NC2CCC2)cc1Cl [Example 77, (S)-2-[3-(2-chloro-4-cyclobutylcarbamoylbenzyl)-4-difluoromethoxy-2-ethyl-8-fluoroquinolin-5-yloxy]propionic acid]
< 100 nM	Cc1nc2c(Cl)ccc(OCC(=O)O)c2c(C)c1Cc1ccc(Cl)cc1 [Example 2, [8-chloro-3-(4-chlorobenzyl)-2,4-dimethylquinolin-5-yloxy]acetic Acid]
< 100 nM	Cc1c(Cc2ccc(Cl)cc2Cl)c(OC(F)F)nc2c(F)ccc(O[C@@H](C)C(=O)O)c12 [Example 68, (S)-2-[3-(2,4-dichlorobenzyl)-2-difluoromethoxy-8-fluoro-4-methylquinolin-5-yloxy]propionic Acid]
< 100 nM	CCc1nc2c(F)ccc(OCC(=O)O)c2c(OC(F)F)c1Cc1ccc(Cl)cc1 [Example 49, [3-(4-chlorobenzyl)-4-difluoromethoxy-2-ethyl-8-fluoroquinolin-5-yloxy]acetic Acid]
< 100 nM	CCc1nc2c(F)ccc(OCC(=O)O)c2c(OC(F)F)c1Cc1ccc(F)cc1Cl [Example 58, [3-(2-chloro-4-fluorobenzyl)-4-difluoromethoxy-2-ethyl-8-fluoroquinolin-5-yloxy]acetic Acid]
< 1000 nM	Cc1nc2c(Cl)ccc(CC(=O)O)c2c(C)c1Cc1ccc(S(C)(=O)=O)cc1 [Example 28, [8-chloro-3-(4-methanesulfonylbenzyl)-2,4-dimethylquinolin-5-yl]acetic acid]
< 100 nM	Cc1c(Cc2ccc(Cl)cc2)c(OC(F)F)nc2c(Cl)ccc(OCC(=O)O)c12 [Example 57, [8-chloro-3-(4-chlorobenzyl)-2-difluoromethoxy-4-methylquinolin-5-yloxy]acetic Acid]
< 100 nM	CCc1nc2c(Cl)ccc(OCC(=O)O)c2c(OC(F)F)c1Cc1ccc(C(=O)N2CCCC2)cc1 [Example 71, {8-chloro-4-difluoromethoxy-2-ethyl-3-[4-(pyrrolidine-1-carbonyl)benzyl]quinolin-5-yloxy}acetic Acid]
< 100 nM	Cc1nc2c(Cl)ccc(OCC(=O)O)c2c(C)c1Cc1ccc(S(C)(=O)=O)cc1Cl [Example 38, [8-chloro-3-(2-chloro-4-methanesulfonylbenzyl)-2,4-dimethylquinolin-5-yloxy]acetic Acid]
< 100 nM	Cc1c(Cc2ccc(S(C)(=O)=O)cc2Cl)c(OC(F)F)nc2c(F)ccc(OCC(=O)O)c12 [Example 46, [3-(2-chloro-4-methanesulfonylbenzyl)-2-difluoromethoxy-8-fluoro-4-methylquinolin-5-yloxy]acetic acid]
< 100 nM	Cc1c(Cc2ccc(Cl)cc2Cl)c(OC(F)F)nc2c(F)ccc(OCC(=O)O)c12 [Example 51, [3-(2,4-dichlorobenzyl)-2-difluoromethoxy-8-fluoro-4-methylquinolin-5-yloxy]acetic Acid]
< 100 nM	Cc1c(Cc2ccc(F)cc2F)c(OC(F)F)nc2c(F)ccc(OCC(=O)O)c12 [Example 55, [3-(2,4-difluorobenzyl)-2-difluoromethoxy-8-fluoro-4-methylquinolin-5-yloxy]acetic acid]
< 10000 nM	Cc1nc2c(Cl)ccc(OCC(=O)NS(=O)(=O)c3ccccc3)c2c(C)c1Cc1ccc(Cl)cc1 [Example 14, N-{2-[8-chloro-3-(4-chlorobenzyl)-2,4-dimethylquinolin-5-yloxy]-acetyl}benzenesulfonamide]
< 100 nM	Cc1nc2c(Cl)ccc(OCC(=O)O)c2c(OC(F)F)c1Cc1ccc(S(C)(=O)=O)cc1 [Example 26, [8-chloro-4-difluoromethoxy-3-(4-methanesulfonylbenzyl)-2-methylquinolin-5-yloxy]acetic acid]
< 100 nM	CCc1nc2c(Cl)ccc(OCC(=O)O)c2c(OC(F)F)c1Cc1ccc(F)cc1 [Example 37, [8-chloro-4-difluoromethoxy-2-ethyl-3-(4-fluorobenzyl)quinolin-5-yloxy]acetic Acid]
< 100 nM	Cc1c(Cc2ccc(S(C)(=O)=O)cc2)c(OC(F)F)nc2c(Cl)ccc(CC(=O)O)c12 [Example 36, [8-chloro-2-difluoromethoxy-3-(4-methanesulfonylbenzyl)-4-methylquinolin-5-yl]acetic Acid]

Ki	SMILES
< 100 nM	Cc1c(Cc2ccc(F)cc2)c(OC(F)F)nc2c(F)ccc(OCC(=O)O)c12 [Example 52, [2-difluoromethoxy-8-fluoro-3-(4-fluorobenzyl)-4-methylquinolin-5-yloxy]acetic Acid]
< 100 nM	Cc1nc2c(Cl)ccc(OCC(=O)O)c2c(OC(F)F)c1Sc1ccc(Cl)cc1 [Example 24, [8-chloro-3-(4-chlorophenylsulfanyl)-4-difluoromethoxy-2-methyl-quinolin-5-yloxy]acetic Acid]
< 100 nM	Cc1nc2c(Cl)ccc(OCC(=O)O)c2c(C)c1Sc1ccc(Cl)cc1 [Example 8, [8-chloro-3-(4-chlorophenylsulfanyl)-2,4-dimethylquinolin-5-yloxy]acetic Acid]
< 100 nM	CCc1nc2c(F)ccc(OCC(=O)O)c2c(OC(F)F)c1Cc1ccc(S(=O)(=O)N2CCOCC2)cc1 [Example 64, {4-difluoromethoxy-2-ethyl-8-fluoro-3-[4-(morpholine-4-sulfonyl)benzyl]quinolin-5-yloxy}acetic acid]
< 100 nM	CCc1nc2c(F)ccc(O[C@@H](C)C(=O)O)c2c(OC)c1Cc1ccc(Cl)cc1Cl [Example 75, (S)-2-[3-(2,4-dichlorobenzyl)-2-ethyl-8-fluoro-4-methoxyquinolin-5-yloxy]propionic Acid]
< 100 nM	CCOc1nc2cc(C)cc(CC(=O)O)c2c(C)c1Cc1ccc(Cl)cc1 [Example 3, [3-(4-chlorobenzyl)-2-ethoxy-4,7-dimethylquinolin-5-yl]acetic Acid]
< 100 nM	Cc1nc2c(Cl)ccc(OCC(=O)O)c2c(C)c1Oc1ccc(Cl)cc1 [Example 7, [8-chloro-3-(4-chlorophenoxy)-2,4-dimethylquinolin-5-yloxy]acetic Acid]
< 100 nM	Cc1c(Cc2ccc(S(C)(=O)=O)cc2Cl)c(OC(F)F)nc2c(Cl)ccc(OCC(=O)O)c12 [Example 40, [8-chloro-3-(2-chloro-4-methanesulfonylbenzyl)-2-difluoromethoxy-4-methylquinolin-5-yloxy]acetic Acid]
< 1000 nM	Cc1nc2c(Cl)ccc(CC(=O)O)c2c(OC(F)F)c1Cc1ccc(Cl)cc1 [Example 25, [8-chloro-3-(4-chlorobenzyl)-4-difluoromethoxy-2-methylquinolin-5-yl]acetic acid]
< 100 nM	Cc1nc2c(Cl)ccc(OCC(=O)O)c2c(OC(F)F)c1Cc1ccc(S(C)(=O)=O)cc1Cl [Example 35, [8-chloro-3-(2-chloro-4-methanesulfonylbenzyl)-4-difluoro-methoxy-2-methylquinolin-5-yloxy]acetic Acid]
< 100 nM	Cc1c(Cc2ccc(Cl)cc2Cl)c(OC(F)F)nc2c(F)ccc(OC(C)C(=O)O)c12 (stereo not drawn) [Example 67, 2-[3-(2,4-dichlorobenzyl)-2-difluoromethoxy-8-fluoro-4-methylquinolin-5-yloxy]propionic Acid]
< 100 nM	CCc1nc2c(F)ccc(O[C@@H](C)C(=O)O)c2c(OC(F)F)c1Cc1ccc(C(=O)N2CCCC2)cc1Cl [Example 73, (S)-2-{3-[2-chloro-4-(pyrrolidine-1-carbonyl)benzyl]-4-difluoromethoxy-2-ethyl-8-fluoroquinolin-5-yloxy}propionic Acid]
< 100 nM	Cc1nc2c(Cl)ccc(OCC(=O)O)c2c(C)c1[S+]([O-])c1ccc(Cl)cc1 (stereo not drawn) [Example 22, [8-chloro-3-(4-chlorobenzenesulfinyl)-2,4-dimethylquinolin-5-yloxy]acetic Acid]
< 100 nM	CCc1nc2c(F)ccc(OCC(=O)O)c2c(OC(F)F)c1Cc1ccc(F)cc1 [Example 50, [4-difluoromethoxy-2-ethyl-8-fluoro-3-(4-fluorobenzyl)quinolin-5-yloxy]acetic Acid]
< 100 nM	CCc1nc2c(Cl)ccc(OCC(=O)O)c2c(OC(F)F)c1Cc1ccc(S(C)(=O)=O)cc1 [Example 29, [8-chloro-4-difluoromethoxy-2-ethyl-3-(4-methanesulfonylbenzyl)-quinolin-5-yloxy]acetic acid]
< 1000 nM	Cc1nc2c(Cl)ccc(OCC(=O)O)c2cc1Cc1ccc(Cl)cc1 [Example 10, [8-chloro-3-(4-chlorobenzyl)-2-methylquinolin-5-yloxy]acetic Acid]
